Experimental data taken from PubChem BioAssay (NCI).
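Tested at 5 concentrations; 48 h exposure; 96-well plates; endpoints linearly interpolated, else capped at highest concentration. Here, GI50 denotes the concentration required for 50% inhibition of growth. TGI marks complete inhibition of growth.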

Assays:
Test in all cases: NCI-60 cell line screen, 48 h
HS 578T breast = tested on: HS 578T breast
OVCAR-5 ovarian = tested on: OVCAR-5 ovarian
SF-295 CNS = tested on: SF-295 CNS
HOP-62 NSCLC = tested on: HOP-62 NSCLC
HOP-92 NSCLC = tested on: HOP-92 NSCLC
OVCAR-8 ovarian = tested on: OVCAR-8 ovarian
IGROV1 ovarian = tested on: IGROV1 ovarian
MALME-3M melanoma = tested on: MALME-3M melanoma
EKVX NSCLC = tested on: EKVX NSCLC
TK-10 renal = tested on: TK-10 renal

SMILES	TGI (HS 578T breast) [µM]	TGI (OVCAR-5 ovarian) [µM]	TGI (SF-295 CNS) [µM]	TGI (HOP-62 NSCLC) [µM]	TGI (HOP-92 NSCLC) [µM]	TGI (OVCAR-8 ovarian) [µM]	TGI (IGROV1 ovarian) [µM]	TGI (MALME-3M melanoma) [µM]	TGI (EKVX NSCLC) [µM]	TGI (TK-10 renal) [µM]	GI50 (MALME-3M melanoma) [µM]
COC(=O)Cc1cc(O)c2c(c1O)C(=O)c1ccccc1C2=O	> 84.5	> 100	> 72.4	63.3	56	> 100	> 100	> 100	> 100	> 79.9	
CC1=NNC(=O)C1C1C(=O)NN=C(c2c[nH]c3ccccc23)C1Br (stereo unspecified)	> 100	> 100	54.7	> 100	> 100	> 100	> 100	> 100	> 100	> 100	
Cc1ccc(C(=N)c2ccccc2Cc2cccc3ccccc23)c2ccccc12	> 100	> 100	> 100	> 100	> 100	> 100	> 100	> 100	> 100	> 100	
COC(=O)C1(NC(=O)C(CC(=O)OCc2ccccc2)NC(=O)OCc2ccccc2)CCCCCC1 (stereo unspecified)	> 100	> 100	> 100	67.5	> 100	90.5	> 100	> 100	> 100	> 100	
O=C(Nc1ccccc1)N(C1=NCC(CI)S1)c1ccc(F)c(F)c1 (stereo unspecified)	> 100	> 100	> 100	> 100	26.3	> 100	> 100	> 100	> 100	> 100	
COc1cc2c(c3c1c(=O)c1ccccc1n3C)C=CC1(CCCC1)O2	9.75	27	12.1	28.7	31.7	57.8	28.4	37.8	26.4	33.7	
N#CCCN(CCC#N)c1ccc(/C=C2\N=C(c3ccccc3)N(c3ccc(F)cc3)C2=O)cc1	> 100	> 100	> 100	> 100	> 100	> 100	> 100	> 100	> 100	> 100	
Cc1ccc(Nc2nc3[nH]ccc3c(=O)[nH]2)cc1	> 100	> 100	> 100	> 100	> 100	> 100	> 100	> 100	> 100	> 100	
CN(C)CC(O)c1ccc(Cl)c2ccccc12 (stereo unspecified)	> 100	> 100	> 63.6	> 100	> 68.2	> 100	> 85.7	86	> 100	> 94	
O=[N+]([O-])c1ccccc1OCCOc1ccccc1[N+](=O)[O-]	> 100	> 100	> 100	> 100	> 100	> 100	> 100	> 100	> 100	> 100	
CCc1n[nH]c(=O)n1CCCCCCCCCCCCn1c(CC)n[nH]c1=O	> 100	> 100	> 100	> 100	> 100	> 100	> 100	76	> 100	> 100	
CC(C)(C)c1ccc(OCCOc2ccc(C(C)(C)C)cc2N)c(N)c1	> 100	> 100	> 100	> 100	> 100	> 100	> 100	> 100	> 100	> 100	
CC(=O)NC1C(OCc2ccccc2)OC(CO)C(O)C1OCC(=O)N1CCCC1C(=O)N[C@@H](CCC(=O)NCCCCNc1c2ccccc2nc2cccc([N+](=O)[O-])c12)C(N)=O (stereo partly specified)	74.8	88.5	> 100	> 100	28.7	> 100	50.6	> 100	> 100	> 100	
C[C@H](c1ccccc1)N1C(=O)[C@@H](O)[C@H]1[C@H](CO)OCc1ccccc1	> 100	> 100	> 100	> 100	> 100	> 100	> 100	> 100	> 100	> 100	
CC(=O)c1c(-c2cccc3ccccc23)c(C#N)c(=S)n(C2OC(CO)C(O)C(O)C2O)c1C (stereo unspecified)	> 100	> 100	> 100	> 100	> 100	> 100	> 100	> 100	32.4	> 100	> 100
CC(C)=CCN1c2ccccc2NC(=O)CC1C (stereo unspecified)	> 100	> 100	> 100	> 100	> 100	> 100	> 100	> 100	> 100	> 100	
NC(=O)Nc1c(Cl)cc(S(N)(=O)=O)cc1Cl	> 100	> 100	> 100	> 100	> 100	> 100	> 100	> 100	> 100	> 100	

SMILES	TGI (HS 578T breast) [µM]	TGI (OVCAR-5 ovarian) [µM]	TGI (SF-295 CNS) [µM]	TGI (HOP-62 NSCLC) [µM]	TGI (HOP-92 NSCLC) [µM]	TGI (OVCAR-8 ovarian) [µM]	TGI (IGROV1 ovarian) [µM]	TGI (MALME-3M melanoma) [µM]	TGI (EKVX NSCLC) [µM]	TGI (TK-10 renal) [µM]	GI50 (MALME-3M melanoma) [µM]
C#CCNC(CSSCC(N)C(=O)O)C(=O)O (stereo unspecified)	> 100	> 100	> 100	> 100	> 100	> 100	> 100	> 100	> 100	> 100	
CC12CCC(CC(=O)/C1=C(/Br)I)C2(C)C (stereo unspecified)	44	8.76	3.03	32.1	31.6	34.3	31.4	25.8	36.6	32.9	
O=C(Nc1ccc(N2C(=O)CSC2c2ccccc2O)cc1)c1ccc(N2C(=O)CSC2c2ccccc2O)cc1 (stereo unspecified)	> 100	> 100	> 100	> 100	86.4	> 100	> 100	> 100	> 100	> 100	
OC1[C@@H]2[C@@H](O)CCCN2C[C@@H](O)[C@H]1O (stereo partly specified)	> 100	> 100	> 100	> 100	> 100	> 100	> 100	> 100	> 100	> 100	
O=c1[nH]c(Nc2ccccc2)nc2c1ncn2CC(O)CSCCO (stereo unspecified)	> 100	> 100	> 100	> 100	> 100	> 100	> 100	> 100	> 100	> 100	
N#Cc1c(-c2ccc(Cl)cc2)c2c(nn3c4ccc5ccccc5c4nnc23)[nH]c1=O	6.54	23.4	5.47	7.97	6.72	6.98	4.06	3.83	27.1	> 100	
CCC/C(Cl)=N\OC(=O)Nc1ccc(F)cc1	> 86.4	36	> 100	38.2	16.5	> 60.9	33.3	20.5	32.6	29.2	
CC(C)/C(Cl)=N/OC(=O)Nc1ccc(Br)cc1	58.4	28.6	28.8	31.7	3.35	27.8	27.1	3.85	4.37	26.2	
CC(N=NNc1ccc(-c2nc3ccccc3[nH]2)cc1)C(=O)O (stereo unspecified)	> 100	> 100	72.1	> 100	> 100	> 100	> 100	> 100	> 100	> 100	
COc1ccc(N2C(=O)C3c4[nH]c5ccc(OCc6ccccc6)cc5c4C4CCC(c5ccccc5)CC4C3C2=O)cc1 (stereo unspecified)	25.8	> 95.8	36.5	10.2	10.3	47.5	> 74.3	45.6	38.2	42.2	
O=C(O)CC(Cc1ccccc1Cl)C(=O)O (stereo unspecified)	> 100	> 100	> 100	> 100	> 100	> 100	> 100	> 100	> 100	> 100	
C[C@@H]1OC(=O)C[C@H]2CC(=O)N(CCC3CN(C(=O)OCc4ccccc4)c4ccccc43)C[C@@H]21 (stereo partly specified)	> 100	> 100	> 100	> 100	> 100	> 100	> 100	> 100	> 100	> 100	
COC(=O)C1=C(O)C(C(=O)OC)C2CC(=O)CC1C2(C)C (stereo unspecified)	> 100	> 100	> 100	> 100	> 100	> 100	> 100	> 100	> 100	> 100	
c1ccc(/C(=N/Nc2nc3ccccc3s2)C2CCCCC2)nc1	50	14.4	29.9	23.5	22.1	14.3	16.5	20.9	25.5	14.5	
C=CCOC(=O)N1c2ccc(O[Si](C)(C)C(C)(C)C)cc2[C@@]23O[C@@]24[C@@H]1C#C/C=C\C#C[C@]3(O)C(OC)(OC)C[C@@H]4C	> 89.1	> 100	> 100	> 100	> 100	> 100	> 100	> 100	> 100	> 100	
CC1CC[C@@]2(OC1)OC1C[C@H]3[C@@H]4CC=C5CC(OC6OC(CO)C(OC7OC(CO)C(O)C(OC8OCC(O)C(O)C8O)C7OC7OC(CO)C(OC8OC(C)C(OC9OC(C)C(O)C(O)C9O)C(O)C8O)C(O)C7O)C(O)C6O)CCC5(C)[C@H]4CCC3(C)C1[C@@H]2C (stereo partly specified)	17.8	14.3	13.8	19	14.8	19.4	16.6	20.1	15.3	15.8	
